Measured values as given in US20230092872A1, “Method for promoting wound healing” (Phagelux Canada Inc., priority 2021, published 2023).

Experiment: Toxicological evaluation of leachable chemicals of BACTELIDE (margin of safety)
Details: worst-case exposure: daily exposure, 100% bioavailability; leachables from BACTELIDE spray
Description: ISO 10993-18:2020 and ISO/TS 21726:2019 leachable studies were performed for BACTELIDE. Solutions of BACTELIDE were collected for analysis via the spraying. The extracts were analyzed by gas chromatography-mass spectrometry (GC-MS) for volatile to semi-volatile compounds, by liquid chromatography-mass spectrometry (LC-MS) for semi-volatile to nonvolatile compounds, and by inductively coupled plasma mass spectrometry (ICP-MS) for elemental (metal and other) components. After analysis, results were reported based on the evaluation criteria listed in the results section below. […] 2-(N,N-Diethylamino)ethyldecyl maleate (CAS #184874-09-7) was the most abundant. Regarding LC-MS results, thirty-nine reportable compounds were identified in the test article extracts in positive ion mode. Glycerol dipentadecanoate (CAS #121957-69-5) was the most abundant. Thirty-six reportable compounds were identified in the test article extracts in negative ion mode. 3-[4-[[4-(2-Oxiranylmethoxy)phenyl]methyl]phenoxy]-1,2-propanediol didodecanoate (CAS #not given) was the most abundant. […]
The MOS values for all chemicals (or groups of similar chemicals) and elements identified across the analytical methods ranged from 3 to 1340000. A few chemicals had calculated “near-1” (i.e. ≥1 but <10) MOS values. […] Their margins of safety were calculated using the ICH M7 less than 1 year TTC of 0.33. […]

OCC(O)COc1ccc(Cc2ccc(OCC3CO3)cc2)cc1 (stereo not shown) [3-[4-[[4-(2-Oxiranylmethoxy)phenyl]methyl]phenoxy]-1,2-propanediols]
MOS value (margin of safety): 3
